Source: ChEMBL document CHEMBL4020847, “Discovery of an Orally Bioavailable Inhibitor of Defective in Cullin Neddylation 1 (DCN1)-Mediated Cullin Neddylation” (J Med Chem, 2018)

Tests used:
[1] = Half life in mouse liver microsomes at 0.8 uM by LC-MS/MS analysis; format: ADME, microsome
[2] = Intrinsic clearance in mouse liver microsomes at 0.8 uM by LC-MS/MS analysis; format: ADME, microsome; conditions: read-out: CLH
DCN1-like protein 1 = DCN1-like protein 1 (Homo sapiens, UniProt Q96GG9)
Description: Inhibition of biotin-labeled DCN1 (unknown origin) assessed as reduction in protein interaction with Ac-UBE2M12-AlexaFluor488 after 1 hr by TR-FRET assay

Mus musculus [3] = experiment: Toxicity in mouse at 0.5 to 1.5 mg/kg, iv administered as single dose up to 48 hrs; format: organism-based; conditions: in vivo
[4] = Half life in mouse at 1 mg/kg, iv administered as single dose; format: ADME, organism-based; conditions: in vivo
[5] = Clearance in mouse at 1 mg/kg, iv administered as single dose; format: ADME, organism-based; conditions: in vivo
[6] = Half life in mouse at 100 mg/kg, po administered as single dose; format: ADME, organism-based; conditions: in vivo
[7] = Clearance in mouse at 100 mg/kg, po administered as single dose; format: ADME, organism-based; conditions: in vivo
Mus musculus [8] = experiment: Volume of distribution in mouse at 0.5 to 1.5 mg/kg, iv administered as single dose; format: ADME, organism-based; conditions: in vivo
Mus musculus [9] = experiment: Cmax in mouse at 50 to 200 mg/kg, po administered as single dose; format: ADME, organism-based; conditions: in vivo
Mus musculus [10] = experiment: AUClast in mouse at 50 to 200 mg/kg, po administered as single dose; format: ADME, organism-based; conditions: in vivo
Mus musculus [11] = experiment: Oral bioavailability in mouse at 50 mg/kg administered as single dose; format: ADME, organism-based; conditions: in vivo
Mus musculus [12] = experiment: Toxicity in mouse at 50 to 200 mg/kg, po administered as single dose up to 48 hrs; format: organism-based; conditions: in vivo
Mus musculus [13] = experiment: Toxicity in mouse at 200 mg/kg, po qd for 14 days; format: organism-based; conditions: in vivo, 336 h
Mus musculus [14] = experiment: Toxicity in mouse at 200 mg/kg, po bid for 14 days; format: organism-based; conditions: in vivo, 336 h
Mus musculus [15] = experiment: Toxicity in mouse assessed as weight loss at 200 mg/kg, po qd for 3 days; format: organism-based; conditions: in vivo, 72 h
Mus musculus [16] = experiment: Toxicity in mouse assessed as weight loss at 200 mg/kg, po qd for 5 to 14 days; format: organism-based; conditions: in vivo
[17] = Plasma concentration in mouse at 200 mg/kg, po qd for 14 days measured after 1 hr; format: ADME, organism-based
[18] = Plasma concentration in mouse at 200 mg/kg, po bid for 14 days measured after 1 hr; format: ADME, organism-based
[19] = Plasma concentration in mouse at 200 mg/kg, po administered as singe dose measured after 1 hr; format: ADME, organism-based
Liver [20] = experiment: Drug level in mouse liver microsomes treated with 1-benzyl-1-(1-(cyclopropylmethyl)piperidin-4-yl)-3-(3-(trifluoromethyl)phenyl)urea at 0.8 uM by LC-MS/MS analysis; format: ADME, microsome
Mus musculus [21] = experiment: Half life in mouse at 0.5 to 1.5 mg/kg, iv administered as single dose; format: ADME, organism-based; conditions: in vivo
Mus musculus [22] = experiment: Clearance in mouse at 0.5 to 1.5 mg/kg, iv administered as single dose; format: ADME, organism-based; conditions: in vivo
Plasma = experiment: Plasma concentration in mouse at 0.5 to 1.5 mg/kg, iv administered as single dose after 2 hrs; format: ADME, organism-based; conditions: in vivo, BLD = below limit of detection
Liver [23] = experiment: Drug metabolism in mouse liver microsomes assessed as 1-benzyl-1-(piperidin-4-yl)-3-(3-(trifluoromethyl)phenyl)urea formation at 0.8 uM by LC-MS/MS analysis; format: ADME, microsome
Liver [24] = experiment: Drug metabolism in mouse liver microsomes assessed as aromatic ring oxidation at 0.8 uM by LC-MS/MS analysis; format: ADME, microsome

Sequence of DCN1-like protein 1 (Q96GG9 whole entry): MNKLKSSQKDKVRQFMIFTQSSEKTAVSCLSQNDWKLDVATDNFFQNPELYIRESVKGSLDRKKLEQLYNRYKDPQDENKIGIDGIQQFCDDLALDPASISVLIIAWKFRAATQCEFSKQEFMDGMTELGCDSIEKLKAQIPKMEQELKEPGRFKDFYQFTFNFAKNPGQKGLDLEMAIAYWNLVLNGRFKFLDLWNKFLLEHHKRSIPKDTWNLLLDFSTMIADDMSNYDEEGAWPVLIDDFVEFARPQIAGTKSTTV

Row | half-life at 0.8 µM [1] [min] | Compound | IC50 (DCN1-like protein 1) [µM] | also measured
1 |  | O=C(Nc1cc(F)cc(C(F)(F)F)c1)N(Cc1ccccc1)C1CCN(Cc2ccncc2)CC1 | > 28 | 
2 | 126 to 127 | CCCCN1CCC(N(Cc2ccccc2)C(=O)Nc2ccc(Cl)c(Cl)c2)CC1 |  | CLint scaled at 0.8 µM [2]: 1.5 to 1.54 L/h/kg; Activity (Mus musculus [3]): Non-Toxic; half-life [4]: 216 min; clearance [5]: 17 L/h/kg; half-life [6]: 252 min; CL/F [7]: 22 L/h/kg; Vd (Mus musculus [8]): 87.3 to 176 L/kg; Cmax (Mus musculus [9]): 1.5 to 3 µM; AUClast (Mus musculus [10]): 3.4 to 17.1 µM·h; F (Mus musculus [11]): 88%; Activity (Mus musculus [12]): Non-Toxic; Activity (Mus musculus [13]): Non-Toxic; Activity (Mus musculus [14]): Non-Toxic; Activity (Mus musculus [15]): 3 to 5%; Activity (Mus musculus [16]): Non-Toxic; concentration at 1 h [17]: 2.4 µM; concentration at 1 h [18]: 3.3 µM; concentration at 1 h [19]: 3 µM
3 | 22.7 | CCCC(C)N1CCC(N(Cc2ccccc2)C(=O)Nc2ccc(Cl)c([N+](=O)[O-])c2)CC1 (stereo not given) |  | 
4 | 9 | CCCC(C)N1CCC(N(Cc2ccccc2)C(=O)Nc2ccc(C)c(F)c2)CC1 (stereo not given) |  | 
5 | 9 | CCCCN1CCC(N(Cc2ccccc2)C(=O)Nc2cccc(C(F)(F)F)c2)CC1 |  | 
6 |  | O=C(Nc1cc(F)cc(C(F)(F)F)c1)N(Cc1ccccc1)C1CCN(Cc2nc3ccccc3s2)CC1 | > 25 | 
7 | 11.3 | CCCC(C)N1CCC(N(Cc2ccccc2)C(=O)Nc2ccc(F)c(F)c2)CC1 (stereo not given) |  | 
8 | 84 | CCCCN1CCC(N(Cc2ccccc2)C(=O)Nc2ccc(F)c(Cl)c2)CC1 |  | 
9 |  | O=C(Nc1cccc(C(F)(F)F)c1)N(Cc1ccccc1)C1CCNCC1 |  | Drug metabolism (Liver [20]): Metabolite_Detected
10 |  | O=C(Nc1cc(F)cc(C(F)(F)F)c1)N(Cc1ccccc1)C1CCN(Cc2cccc(Oc3ccccc3)c2)CC1 | > 24 | 
11 |  | COc1ccccc1CN1CCC(N(Cc2ccccc2)C(=O)Nc2cc(F)cc(C(F)(F)F)c2)CC1 | > 25 | 
12 |  | CCCC(C)N1CCC(N(Cc2ccccc2)C(=O)Nc2ccc3ncccc3c2)CC1 (stereo not given) | > 20 | 
13 | 10.6 | CCCC(C)N1CCC(N(Cc2ccccc2)C(=O)Nc2ccc(C(C)C)cc2)CC1 (stereo not given) |  | 
14 | 11.8 | CCCC(C)N1CCC(N(Cc2ccccc2)C(=O)Nc2cc(F)cc(C(F)(F)F)c2)CC1 (stereo not given) |  | 
15 | ≤ 6 | CCCCN1CCC(N(Cc2ccccc2)C(=O)Nc2cc(F)cc(F)c2)CC1 |  | CLint scaled at 0.8 µM [2]: ≥ 30 L/h/kg
16 |  | CCCC(C)N1CCC(N(Cc2ccccc2)C(=O)Nc2ccc(C(C)(C)C)cc2)CC1 (stereo not given) | 1.72 | 
17 | ≤ 6 | CCCC(C)N1CCC(N(Cc2ccccc2)C(=O)Nc2cc(F)cc(Cl)c2)CC1 (stereo not given) |  | CLint scaled at 0.8 µM [2]: ≥ 30 L/h/kg
18 | 10.2 | CCCN1CCC(N(Cc2ccccc2)C(=O)Nc2cccc(C(F)(F)F)c2)CC1 |  | 
19 |  | COc1cccc(CN2CCC(N(Cc3ccccc3)C(=O)Nc3cc(F)cc(C(F)(F)F)c3)CC2)c1 | > 28 | 
20 |  | Cc1ccc(CN2CCC(N(Cc3ccccc3)C(=O)Nc3cc(F)cc(C(F)(F)F)c3)CC2)o1 | > 24 | 

Row | half-life at 0.8 µM [1] [min] | Compound | IC50 (DCN1-like protein 1) [µM] | also measured
21 | ≤ 6 | CCCCN1CCC(N(Cc2ccccc2)C(=O)Nc2cccc(Cl)c2)CC1 |  | 
22 | 16.3 | CCCN1CCC(N(Cc2cc(F)cc(C(F)(F)F)c2)C(=O)Nc2cccc(C(F)(F)F)c2)CC1 |  | 
23 |  | O=C(Nc1cc(F)cc(C(F)(F)F)c1)N(Cc1ccccc1)C1CCN(Cc2ccc(Cc3ccccc3)cc2)CC1 | > 22 | 
24 | 14.3 | CCCC(C)N1CCC(N(Cc2ccccc2)C(=O)Nc2ccc3ncsc3c2)CC1 (stereo not given) |  | 
25 | ≤ 6 | CCCC(C)N1CCC(N(Cc2ccccc2)C(=O)Nc2ccc3c(c2)OCO3)CC1 (stereo not given) |  | CLint scaled at 0.8 µM [2]: ≥ 30 L/h/kg
26 | 7.44 | CC(C)(C)N1CCC(N(Cc2ccc3c(c2)OCO3)C(=O)Nc2cccc(C(F)(F)F)c2)CC1 |  | 
27 | ≤ 6 | CCCC(C)N1CCC(N(Cc2ccccc2)C(=O)Nc2ccc3c(c2)CCC3)CC1 (stereo not given) |  | 
28 | 8.22 | CCCN1CCC(N(Cc2ccco2)C(=O)Nc2cccc(C(F)(F)F)c2)CC1 |  | 
29 | 19.6 to 19.8 | CCCC(C)N1CCC(N(Cc2ccccc2)C(=O)Nc2cccc(C(F)(F)F)c2)CC1 (stereo not given) |  | CLint scaled at 0.8 µM [2]: 9.9 to 10.2 L/h/kg; Activity (Mus musculus [3]): Non-Toxic; t1/2 (Mus musculus [21]): 8.4 min; CL (Mus musculus [22]): 42 L/h/kg; Cp (Plasma): Bld; Vd (Mus musculus [8]): 87.3 to 176 L/kg
30 |  | Cn1cncc1CN1CCC(N(Cc2ccccc2)C(=O)Nc2cc(F)cc(C(F)(F)F)c2)CC1 | > 24 | 
31 |  | Cn1ccc2cc(CN3CCC(N(Cc4ccccc4)C(=O)Nc4cc(F)cc(C(F)(F)F)c4)CC3)ccc21 | > 21 | 
32 | 146 | CCCCN1CCC(N(Cc2ccccc2)C(=O)Nc2cc(F)cc(C(F)(F)F)c2)CC1 |  | 
33 | < 6 | O=C(Nc1cccc(C(F)(F)F)c1)N(Cc1ccccc1)C1CCN(CC2CC2)CC1 |  | Drug metabolism (Liver [23]): Metabolite_Detected; Drug metabolism (Liver [24]): Metabolite_Detected
34 | < 6 | CCCN1CCC(N(Cc2ccc3c(c2)OCO3)C(=O)Nc2cccc(C(F)(F)F)c2)CC1 |  | 
35 | ≤ 6 | CCCCN1CCC(N(Cc2ccccc2)C(=O)Nc2cccc(C(F)(F)F)c2F)CC1 |  | 
36 |  | Cn1ccnc1CN1CCC(N(Cc2ccccc2)C(=O)Nc2cc(F)cc(C(F)(F)F)c2)CC1 | > 28 | 
37 | 35.5 | O=C(Nc1cccc(C(F)(F)F)c1)NC1CCN(Cc2ccccc2)CC1 |  | 
38 | 14.7 | CCCCN1CCC(N(Cc2ccc3c(c2)OCO3)C(=O)Nc2cccc(C(F)(F)F)c2)CC1 |  | 
39 | ≤ 6 | CCCCN1CCC(N(Cc2ccccc2)C(=O)Nc2cccc(F)c2)CC1 |  | CLint scaled at 0.8 µM [2]: ≥ 30 L/h/kg

Row | Compound | half-life at 0.8 µM [1] [min] | IC50 (DCN1-like protein 1) [µM] | also measured
40 | CCCC(C)N1CCC(N(Cc2ccccc2)C(=O)Nc2ccc3ccccc3c2)CC1 (stereo not given) | ≤ 6 | 0.018 | CLint scaled at 0.8 µM [2]: ≥ 30 L/h/kg
41 | CCCCN1CCC(N(Cc2ccccc2)C(=O)Nc2ccc(F)c(C(F)(F)F)c2)CC1 | 116 | 0.612 | 
42 | CCCC(C)N1CCC(N(Cc2ccccc2)C(=O)Nc2ccc(C(F)(F)F)nc2C)CC1 (stereo not given) | > 240 | 13.3 | 
43 | CCCC(C)N1CCC(N(Cc2ccccc2)C(=O)Nc2cc(C(F)(F)F)ccc2F)CC1 (stereo not given) | 48.5 | 7.44 | 
44 | CCCC(C)N1CCC(N(Cc2ccccc2)C(=O)Nc2ccc(C(F)(F)F)cc2)CC1 (stereo not given) | 27.3 | 0.314 | 
45 | CCCC(C)N1CCC(N(Cc2ccccc2)C(=O)Nc2ccc(C#N)c(C(F)(F)F)c2)CC1 (stereo not given) | 55.9 |  | 
46 | CCCC(C)N1CCC(N(Cc2ccccc2)C(=O)Nc2ccc(Cl)cc2)CC1 (stereo not given) | 22.1 | 0.112 | 
47 | CCCC(C)N1CCC(N(Cc2ccccc2)C(=O)Nc2ccc(Br)cc2)CC1 (stereo not given) | 23.2 | 0.068 | 
48 | CCCC(C)N1CCC(N(Cc2ccccc2)C(=O)Nc2cccc(F)c2)CC1 (stereo not given) | ≤ 6 | 1.69 | 
49 | CCCCN1CCC(N(Cc2ccccc2)C(=O)Nc2ccc(C)c(Cl)c2)CC1 | 17.2 | 0.325 | 
50 | CCCC(C)N1CCC(N(Cc2ccccc2)C(=O)Nc2cccc(Cl)c2)CC1 (stereo not given) | ≤ 6 | 0.304 | 
51 | CCCC(C)N1CCC(N(Cc2ccccc2)C(=O)Nc2ccc(F)c(C(F)(F)F)c2)CC1 (stereo not given) | 23.6 | 0.29 | 
52 | CCCC(C)N1CCC(N(Cc2ccccc2)C(=O)Nc2cccc(C(C)C)c2)CC1 (stereo not given) | 13.4 | 0.353 | 
53 | CCCC(C)N1CCC(N(Cc2ccccc2)C(=O)Nc2ccc(I)cc2)CC1 (stereo not given) | 29.9 | 0.054 | 
54 | CCCCN1CCC(N(Cc2ccccc2)C(=O)Nc2cccc(C#N)c2)CC1 | 9.3 | 4.25 | 
55 | CCCC(C)N1CCC(N(Cc2ccccc2)C(=O)Nc2cc(Cl)ccc2F)CC1 (stereo not given) | 14.9 | > 34 | 
56 | CCCC(C)N1CCC(N(Cc2ccccc2)C(=O)Nc2ccc(C)cc2)CC1 (stereo not given) | 9.6 | 0.356 | 
57 | CCCCN1CCC(N(Cc2ccccc2)C(=O)Nc2cccc(C)c2)CC1 | 10.7 | 1.3 | 
